The values that follow come from ChEMBL document CHEMBL3045198, “Insecticidal Activity and Selective Toxicity of Chloronicotinyl Compounds Having Thiomethyl Groups” (J Pestic Sci, 2000).

The IC50 is the point on the concentration scale where inhibition reaches its midpoint. Read a low IC50 as greater potency in that assay. Broadly, the LD50 is the dose expected to kill half of the subjects tested. The term mortality denotes the percentage killed. The LC50 is the concentration that kills 50% of the test population.

Each structure is given as a SMILES string. Converted amounts (≈) assume the structure as drawn.

The nature of series [1]: Displacement of [3H]alpha-bungarotoxin from nicotinic acetylcholine receptor in Apis mellifera (honey bee) head membrane. A general note: In a radioligand displacement assay an active substance lowers the binding of a labelled ligand.
The nature of series [2]: Acute toxicity in po dosed Mus musculus ICR (mouse) assessed as mortality measured after 14 days. The series is classed as organism-based. To be noted: in vivo.
The test system of series [3] is Laodelphax striatellus. Put plainly: Insecticidal activity against adult Laodelphax striatella (small brown planthopper) at 0.0005 ug topically applied measured after 24 hr. Format: functional.
The subject of series [4] is Laodelphax striatellus. Put plainly: Insecticidal activity against adult Laodelphax striatella (small brown planthopper) at 0.0005 ug topically applied measured after 3 hr. Format: functional.
The subject of series [5] is Myzus persicae. Put plainly: Insecticidal activity against larvae of Myzus persicae (green peach aphid) infested eggplant petiole treated with compound solution measured after 5 days. The series is classed as functional. Conditions: 120 h.
The subject of series [6] is Laodelphax striatellus. Description: Insecticidal activity against larvae of Laodelphax striatella (small brown planthopper) fed with compound solution dipped rice seedling measured after 5 days by test tube method. Format: functional. Conditions: 120 h.
Series [7] concerns Laodelphax striatellus. Put plainly: Insecticidal activity against Laodelphax striatella (small brown planthopper) at 3.1 ppm in presence of diethyl maleate. The series is classed as functional.
Series [8] has as its system Laodelphax striatellus. Put plainly: Insecticidal activity against Laodelphax striatella (small brown planthopper) at 12.5 ppm in presence of diethyl maleate. The series is classed as functional.
Series [9] deals with Laodelphax striatellus. Description: Insecticidal activity against Laodelphax striatella (small brown planthopper) at 3.1 ppm in presence of triphenyl phosphate. The series is classed as functional.
Series [10] relates to Laodelphax striatellus. Description: Insecticidal activity against Laodelphax striatella (small brown planthopper) at 12.5 ppm in presence of triphenyl phosphate. The series is classed as functional.
Series [11] relates to Laodelphax striatellus. Description: Insecticidal activity against Laodelphax striatella (small brown planthopper) at 3.1 ppm in presence of piperonyl butoxide. The series is classed as functional.
Series [12] has as its system Laodelphax striatellus. Put plainly: Insecticidal activity against Laodelphax striatella (small brown planthopper) at 12.5 ppm in presence of piperonyl butoxide. Format: functional.
In series [13] the test system is Laodelphax striatellus. Put plainly: Insecticidal activity against Laodelphax striatella (small brown planthopper) at 12.5 ppm. Format: functional.
Series [14] relates to Laodelphax striatellus. Put plainly: Insecticidal activity against Laodelphax striatella (small brown planthopper) at 3.1 ppm. The series is classed as functional.
Series [15] deals with Laodelphax striatellus. Description: Insecticidal activity against Laodelphax striatella (small brown planthopper) at 0.0005 ug topically applied measured after 72 hr. Format: functional.
Series [16] concerns Laodelphax striatellus. Description: Insecticidal activity against Laodelphax striatella (small brown planthopper) at 0.0005 ug topically applied measured after 48 hr. Format: functional.

Regarding `O=[N+]([O-])/C=C1\NCCN1Cc1ccc(Cl)nc1`, in series [1], the IC50 was determined as 0.11 µM. Besides, the 50% lethal dose (LD50) at 336 h in series [2] is under 30 mg/kg. The values for the mortality in series [3] and in [4] were 100% and 70%, respectively. Further, the LC50 came out at 0.09 µg/mL (≈ 0.353 µM) in [5] and 0.3 µg/mL (≈ 1.18 µM) in [6].

`C[Si](C)(CSC/C(=C1/NCCN1Cc1ccc(Cl)nc1)[N+](=O)[O-])c1ccccc1`: the LC50 in [5] came out at 0.25 µg/mL (≈ 0.557 µM); in [6], 0.1 µg/mL (≈ 0.223 µM).

Turning to `O=C(SC/C(=C1/NCCN1Cc1ccc(Cl)nc1)[N+](=O)[O-])c1ccccc1`, the LC50 in series [5] came to 1.2 µg/mL (≈ 2.96 µM); in series [6] it was 6.3 µg/mL (≈ 15.6 µM).

For `CC(SC/C(=C1/NCCN1Cc1ccc(Cl)nc1)[N+](=O)[O-])c1ccc(Cl)cc1` (stereo not drawn), the LC50 in series [5] is 0.2 µg/mL (≈ 0.455 µM); in series [6] it was 1 µg/mL (≈ 2.28 µM).

As to `O=[N+]([O-])/C(CSCc1ccc(Cl)cc1)=C1\NCCN1Cc1ccc(Cl)nc1`, the LC50 is 0.8 µg/mL (≈ 1.88 µM) in [5] and 0.14 µg/mL (≈ 0.329 µM) in series [6].

As for `O=[N+]([O-])/C(CSCc1ccccc1)=C1\NCCN1Cc1ccc(Cl)nc1`, the 50% lethal concentration (LC50) is 0.11 µg/mL (≈ 0.281 µM) in series [5] and 0.36 µg/mL (≈ 0.921 µM) in [6].

`CCOC(=O)CSC/C(=C1/NCCN1Cc1ccc(Cl)nc1)[N+](=O)[O-]`: the LC50 in [5] turned out to be 0.1 µg/mL (≈ 0.258 µM); in series [6], 0.3 µg/mL (≈ 0.775 µM).

Take `O=[N+]([O-])/C(CSc1ccccc1)=C1\NCCN1Cc1ccc(Cl)nc1`: the LC50 in [5] turned out to be 0.34 µg/mL (≈ 0.902 µM); in series [6], 0.11 µg/mL (≈ 0.292 µM).

Turning to `O=[N+]([O-])/C(CSCCCF)=C1\NCCN1Cc1ccc(Cl)nc1`, the results for the 50% lethal concentration (LC50) in series [5] and in [6] were 0.2 µg/mL (≈ 0.554 µM) and 0.14 µg/mL (≈ 0.388 µM), respectively.

With `CC#CCSC/C(=C1/NCCN1Cc1ccc(Cl)nc1)[N+](=O)[O-]`, the LC50 in series [5] was 0.25 µg/mL (≈ 0.709 µM); in [6], 0.3 µg/mL (≈ 0.85 µM).

On to `C=C(C)CSC/C(=C1/NCCN1Cc1ccc(Cl)nc1)[N+](=O)[O-]`, for which the LC50 was 0.15 µg/mL (≈ 0.423 µM) in series [5] and under 0.05 µg/mL in [6].

In the case of `C#CCSC/C(=C1/NCCN1Cc1ccc(Cl)nc1)[N+](=O)[O-]`, the figures for the median lethal concentration (LC50) in [5] and in series [6] were 0.22 µg/mL (≈ 0.649 µM) and under 0.05 µg/mL, respectively.

With `C=CCSC/C(=C1/NCCN1Cc1ccc(Cl)nc1)[N+](=O)[O-]`, the IC50 in series [1] was 20.4 µM. Also, in series [2], the median lethal dose (LD50) at 336 h is over 1000 mg/kg. In addition, the mortality at 3.1 ppm in series [7] stood at 30%; in series [9], 100%; in series [11], 100%; in series [14], 100%. Also, the mortality at 12.5 ppm in series [8] stood at 80%; in [10], 100%; in series [12], 100%; in [13], 100%. Also, the mortality is given as 100% in series [15], 80% in [16], 30% in series [3] and 0% in series [4]. For the same compound, the LC50 in [5] is 0.1 µg/mL (≈ 0.293 µM); in series [6], 0.14 µg/mL (≈ 0.411 µM).

As to `CC(C)(C)SC/C(=C1/NCCN1Cc1ccc(Cl)nc1)[N+](=O)[O-]`, the median lethal concentration (LC50) amounted to 0.2 µg/mL (≈ 0.56 µM) in series [5] and 0.43 µg/mL (≈ 1.2 µM) in [6].

As for `CCSC/C(=C1/NCCN1Cc1ccc(Cl)nc1)[N+](=O)[O-]`, the median lethal concentration (LC50) in series [5] stood at 0.18 µg/mL (≈ 0.547 µM); in series [6], 0.41 µg/mL (≈ 1.25 µM).
